Source: patent US20260297042A1, “BIARYLAMIDE DERIVATIVES AND THEIR USE AS PKMYT1 INHIBITORS” (CANCER RESEARCH TECHNOLOGY LIMITED, priority 2023, published 2026)

Molecular target: T1, Human PKMYT1 (Homo sapiens, UniProt Q99640)
T1 construct: Human PKMYT1 75-362 was cloned as a TEV cleavable 6xHis fusion; 6xHis (TEV cleavable) (cleaved yes); made in house; host or cells: bacterial cells
T1 sequence (Q99640 75-362): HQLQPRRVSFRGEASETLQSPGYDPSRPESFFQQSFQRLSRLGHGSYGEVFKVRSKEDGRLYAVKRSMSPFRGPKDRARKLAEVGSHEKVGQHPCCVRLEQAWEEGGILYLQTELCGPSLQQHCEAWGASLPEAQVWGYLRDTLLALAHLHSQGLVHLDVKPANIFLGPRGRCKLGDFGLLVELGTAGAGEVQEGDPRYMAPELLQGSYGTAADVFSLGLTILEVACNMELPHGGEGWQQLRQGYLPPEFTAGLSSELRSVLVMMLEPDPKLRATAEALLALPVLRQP
Experiment: PKMYT1 biochemical ADP-Glo enzymatic assay
Conditions: ADP-Glo; 15 nM PKMYT1 kinase domain, 500 µM ATP, 60 minutes at 26° C.; banded
In short: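 IC50 derived from luminescence (ADP-Glo Max) after PKMYT1 kinase domain, 15 nM, turned over 500 µM ATP for 60 min at 26 °C. Buffer contained 10 mM MgCl2, 1 mM EGTA and 0.01% Brij-35 at pH 7.5.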

IC50: < 50 nM
SMILES: CCN(CC)C(=O)Cn1cc(C)c(Nc2ncc(C(=O)Nc3c(C)ccc(O)c3C)s2)n1 [BAA-207, 2-[[1-[2-(diethylamino)-2-oxo-ethyl]-4-methyl-pyrazol-3-yl]amino]-N-(3-hydroxy-2,6-dimethyl-phenyl)thiazole-5-carboxamide]
